# Measurements: PubChem BioAssay AID1996
# Settings: buffer; pH 7.4; 200.0 µM
row,SMILES,solubility kinetic [µg/mL]
1,O=c1c2ccccc2[nH]c2ccc(O)cc12,> 31.7
2,O=C(CN1CCN(c2cccc(Cl)c2)CC1)NCc1ccccc1,42.5
3,Cc1c(N)cc(N)cc1C(=O)O,> 24.9
4,COc1cc(NC(=O)NC2Cc3ccccc3C2)cc(OC)c1,< 0.3
5,Cc1cccc(NC(=O)C(c2ccccc2Cl)N2CCOCC2)c1 (stereo unspecified),48.9
6,CC(Nc1nc(-c2ccccc2O)nc2ccccc12)c1ccccc1 (stereo unspecified),< 0.2
7,FC(F)(F)c1ccccc1-n1ccnc1,30.2
8,O=C(COc1ccccc1O)NC1CCCC1,> 35.3
9,N#CC1(N2CCN(C(=O)c3ccccc3)CC2)CCCCC1,35.9
10,CCOC(=O)c1ccc(Nc2c(OCC)c(=O)c2=O)cc1,21.6
11,COc1ccc(S(=O)(=O)N(C)C(C)CCc2ccco2)cc1 (stereo unspecified),35
12,COc1ccc(/C=C2\C(=O)NC(=S)N(C)C2=O)cc1C,> 43.6
13,CC(NC(=O)CN1CCN(C(=O)c2cccs2)CC1)c1ccc(F)cc1F (stereo unspecified),> 59
14,CCCOc1ncnc2c1[nH]c1ccc(C)cc12,0.9
15,CCOC(=O)COc1nc2c(c(-c3ccco3)c1C#N)CCc1ccccc1-2,1.5
16,CCc1ccc(NC(=O)N2CCCCCC2)cc1,31.9
17,CCCC(=O)OCC[N+](C)(C)C.[Cl-],> 31.5
18,CC(=O)C1=C(C)NC(SCC(N)=O)=C(C#N)C1c1ccco1 (stereo unspecified),> 47.6
19,O=C(Nc1ccc(Br)cc1)c1cnc[nH]1,> 39.9
20,Cc1nc(C)c(Oc2ccc(Cl)cc2Cl)c(=O)[nH]1,6.9
21,CCC(=NCCCn1ccnc1)c1c(O)n(-c2ccccc2)c(=O)[nH]c1=O,> 55.1
22,CC1CCN(c2nc3c(cc2C#N)COC(C)(C)C3)CC1,16
23,COc1cccc(NCc2cc(=O)oc3cc(C)c(C(C)C)cc23)c1,2.8
24,Cc1ccc(NC(=O)CC2SCCNC2=O)cc1[N+](=O)[O-] (stereo unspecified),36.2
25,COC(=O)c1ccccc1N=Cc1c(O)[nH]c(=S)[nH]c1=O,6.1

row,SMILES,solubility kinetic [µg/mL]
1,Cc1ccc2[nH]c(=O)c(CN(C(=O)c3cccc([N+](=O)[O-])c3)C(C)C)cc2c1,2.6
2,COc1ccc(CSC2=CS(=O)(=O)c3ccccc3N2)cc1,9.8
3,N=C1SCC(=O)N1c1ccccc1Cl,> 34
4,COc1ccc(C(=O)N2CCc3c([nH]c4ccccc34)C2C(F)(F)F)cc1 (stereo unspecified),1.1
5,Cc1ccc(C(=O)N/N=C\c2ccccn2)cn1,> 36
6,CC(=O)Nc1ccc(S(=O)(=O)Nc2cc(Cl)ccc2N2CCOCC2)cc1,> 61.5
7,O=C(NC1CCC1)C1CCC(=O)N(Cc2cccc(F)c2)C1 (stereo unspecified),> 45.7
8,O=C(O)c1cc(-n2cccc2)ccc1N1CCOCC1,> 40.8
9,Cc1ccc(C)c(NC(=O)COC(=O)c2ccc[n+]([O-])c2)c1,> 45
10,OCC(O)CN(c1ccccc1)c1ccccc1 (stereo unspecified),> 36.5
11,[Br-].c1ccc(C[n+]2ccc3ccccc3c2)cc1,43.9
12,CS(=O)(=O)N(CC(=O)NCCSCc1cccc(Cl)c1)c1ccc(F)cc1,38
13,O=C(Nc1ccc(F)cc1)c1ccc2nsnc2c1,5.4
14,N#Cc1ccc(-c2ccc(OCC(O)CN3CCCCC3)cc2)cc1 (stereo unspecified),42.4
15,CCOc1ccc(NC(=O)c2cc(Cl)nc3ccccc23)cc1,0.4
16,Fc1cc(Cl)ccc1NC(=S)NCCN1CCOCC1,> 47.7
17,CN(Cc1cccc(F)c1)C(=O)c1cc(=O)[nH]c2ccccc12,44.3
18,C/C(=N\O)C(C)(C)Nc1ccc(F)cc1,> 31.5
19,CN(C)C=Nc1nonc1-c1ccccc1,24.4
20,Cc1cccc(C)c1NC(=O)NC1(C(=O)NCc2ccncc2)CCCCC1,> 57.1
21,O=C(CNC(=O)c1ccccc1F)OCC(=O)c1ccc(Cl)s1,> 53.4
22,Cc1cccc(C)c1NC(=O)N1CCCCCCC1,38.8
23,COc1ccc(C(=O)CCC(=O)Nc2cccc(Cl)c2)cc1,3.4
24,COc1ccc(N=Cc2nc(-c3ccccc3)oc2OC(C)=O)cc1,1.6
25,CCNC(=S)N1CCC(C(=O)c2ccc3c(c2)OCCO3)CC1,44.8

row,SMILES,solubility kinetic [µg/mL]
1,CC(C)NCc1nnc(-c2ccccc2Cl)o1,> 37.8
2,Cc1cccc(-c2noc(-c3ccccc3C(=O)NCc3ccco3)n2)c1,8.9
3,Cc1cnc(NC(=O)c2ccc3c(c2)OCCO3)s1,4.4
4,CCOc1ccccc1CN1CCN(Cc2ccon2)CC1CCO (stereo unspecified),48.9
5,CC[C@@H](Nc1ncnc2c1oc1ccccc12)C(=O)O,29.9
6,COc1ccccc1NC(=O)COC(=O)C1CC(=O)N(c2ccc3c(c2)OCCO3)C1 (stereo unspecified),37.8
7,O=C(COC(=O)c1ccccc1Br)NC(=O)NCc1ccccc1,5.1
8,N#CC(=C=[N-])c1nc2ccccc2nc1-[n+]1ccccc1,7.3
9,O=S(=O)(c1ccc(S(=O)(=O)N2CCCC2)cc1)N1CCCCC1,< 0.4
10,O=C1CC(N2CCSCC2)C(=O)N1c1ccc(Br)cc1 (stereo unspecified),> 53.3
11,O=C(NCCNC(=O)c1cnccn1)c1ccc(Cl)cc1,> 45.7
12,COc1ccccc1NC(=S)NCc1ccc(Cl)cc1,33
13,CCC(=O)OCCn1c(=O)c2ccccc2c2ccccc2c1=O,> 48.5
14,CCOC(=O)N1CCN(CC(O)c2c[nH]c3ccc(OC)cc23)CC1 (stereo unspecified),> 52.1
15,C=CCN1CCN(C(=O)c2cc3c(s2)CCC(CC)C3)CC1 (stereo unspecified),46.3
16,Cc1sc2ncnc(NC(C)C(=O)O)c2c1C (stereo unspecified),> 37.7
17,COc1ccc(OC)c(Nc2nc(C)nc3c2oc2ccccc23)c1,< 0.2
18,Oc1ccccc1CNc1cccc2cccnc12,19.3
19,CCC(=O)NCc1ccc(-c2nc3ncccc3o2)cc1,> 42.2
20,O=[N+]([O-])c1cccc(S(=O)(=O)N2CCN(c3ccccn3)CC2)c1,1.3
21,Cl.Nc1nc(N)c2[nH]c(-c3ccccc3)nc2n1,> 39.4
22,Fc1ccc(Nc2ncnc3sccc23)cc1,32.8
23,CC(Sc1ccccc1)C(=O)N(CCC#N)Cc1cccnc1 (stereo unspecified),> 48.8
24,CCCC(=O)Nc1cc(C(F)(F)F)ccc1N1CCOCC1,44.6
25,O=C(CN1CCCC1)Nc1ccc(Br)cc1[N+](=O)[O-],20.3

row,SMILES,solubility kinetic [µg/mL]
1,CC(CC(=O)O)CC(=O)Nc1cccc([N+](=O)[O-])c1 (stereo unspecified),> 39.9
2,O=C(NCc1ccccc1)C1CCCN(c2cnccn2)C1 (stereo unspecified),> 44.5
3,Cc1ccc(C(=O)Nc2ccc3c(c2)OCCO3)cc1S(=O)(=O)N1CCOCC1,41.6
4,CC1CCCN(S(=O)(=O)c2cccc(C(=O)OCC(=O)N(C)Cc3c(F)cccc3Cl)c2)C1 (stereo unspecified),8.8
5,Cc1[nH]c(=O)[nH]c(=O)c1S(=O)(=O)Nc1ccc(F)c(Cl)c1,> 50.1
6,COCCN1Cc2cc(=O)n3c([nH]c4ccccc43)c2C1=N,5.1
7,COC(=O)c1ccc(S(=O)(=O)NCc2ccccc2)n1C,> 46.3
8,S=C(NCCCc1ccccc1)NC1CCCCC1,22.5
9,COc1ccc(OC)c2sc(N3CCc4ccccc4C3)nc12,0.6
10,CC(C)Oc1ccc(C(=O)Nc2cccc3cccnc23)cc1,1.1
11,CCC(=O)N(CCC1(C(C)C)CCOC(C)(C)C1)C(C)c1cccs1 (stereo unspecified),42.2
12,CCCN(CCC)CC(O)Cn1c2ccccc2c2ccccc21 (stereo unspecified),12.5
13,Cc1ccc(NC(=O)CSc2ncc3ccccn23)cc1C,40.5
14,CCOC(=O)C1=C(C)NC(=O)CC1c1ccccc1OC (stereo unspecified),36.8
15,O=C(NCc1ccco1)c1ccc2[nH]c(=O)c(=O)[nH]c2c1,> 42.8
16,CS(=O)(=O)N1CCCC(C(=O)Nc2ccc(F)c(F)c2)C1 (stereo unspecified),> 47.8
17,O=C(/C=C/c1ccccc1)NC(=S)Nc1ccccc1,< 0.3
18,Cc1cc(C)c(C(=O)NNC(=O)c2cccnc2)c(C)c1,> 42.5
19,CC1CCCC(NC(=O)COC(=O)Cc2ccc(Cl)cc2)C1C (stereo unspecified),27.3
20,Clc1ccc(-c2nc3ccccc3[nH]2)cn1,31.8
21,CCOc1ccc2c(c1)c1nc3ccccc3nc1n2C,< 0.2
22,CC1CC(NC(=O)/C(C#N)=C/c2ccc[nH]2)CC(C)(C)C1 (stereo unspecified),< 0.2
23,OCCN1CCN(CC#CCC(c2ccccc2)c2ccccc2)CC1,> 52.3
24,Cc1ccc(-c2ccc(C#N)c(=O)n2CC(=O)N(C)C)cc1,3.3
25,NC(=O)c1ccccc1N,> 20.4

row,SMILES,solubility kinetic [µg/mL]
1,CCOC(=O)CN1C(=O)C(=O)N(Cc2ccccc2F)C1=O,> 46.2
2,CC(C)(C)c1cc(CCC(=O)Nc2ccncc2)cc(C(C)(C)C)c1O,40.4
3,COc1cccc(NC(=O)c2cc3ccccc3cc2OC)c1,2.8
4,CC(C)c1ccccc1NC(=S)NC1CCCCC1,> 41.5
5,Nc1ncccc1OCc1ccc(Br)cc1,37.3
6,COC(=O)c1cn(C(=O)c2cc(Cl)ccc2Cl)c2ccccc12,< 0.7
7,Cc1nc(CSc2ccc(Br)cc2)cs1,8.8
8,Oc1[nH]c2ccccc2c1C=Nc1ccccc1,0.7
9,Cc1cccn2c(=O)nc(SCC(=O)NCc3ccc(F)cc3)nc12,> 53.8
10,COc1ccc(NC(=S)NC2CC3CCCC(C2)N3C2CC2)cc1 (stereo unspecified),> 51.8
11,CC(C)=C(NC(=O)c1ccccc1)C(=O)NCc1ccccc1,> 46.3
12,CCN1C(=O)N(CC)C2C1N(CO)C(=O)N2CO (stereo unspecified),> 38.7
13,COc1ccc(NC(=O)CCC(=O)N/N=C/c2cccnc2)cc1,> 49
14,O=C(Nc1ccc(Br)cc1)C1CCCC1,7
15,O=C(C1CCCC1)N1CCCC(Nc2ccccc2)C1 (stereo unspecified),35.9
16,COc1ccc2[nH]c3c(=O)n(CCc4ccccc4)cnc3c2c1,0.6
17,CN1CCC(N(C)C(=O)c2ccc(Cl)c(S(=O)(=O)N3CCc4ccccc43)c2)CC1,> 67.2
18,CNC(=O)c1ccccc1Sc1ccccc1CO,40.3
19,CC1CC1C(=O)OCC(=O)Nc1ccc(Cl)cn1 (stereo unspecified),27.6
20,CN(c1ccccc1)c1nccc(=O)[nH]1,> 30.2
21,COc1ccc(NC(=O)CCOc2ccccc2F)cc1S(=O)(=O)N1CCCCC1,34.8
